Reference: ChEMBL document CHEMBL1141875, “Antitumor-active cobalt-alkyne complexes derived from acetylsalicylic acid: studies on the mode of drug action” (J Med Chem, 2005)

Legend:
[1] = Antiproliferative activity in MCF-7 human breast cancer cells; type: functional, cell-based, MCF7
[2] = Antiproliferative activity in MDA-MB 231 human breast cancer cells; type: functional, cell-based, Cancer cell lines
[3] = Lipophilicity was reported; type: physicochemical; conditions: human, octanol/water
[4] = system: Cancer cell lines; assay: Content in MDA-MB 231 human breast cancer cell nuclei was reported; type: functional, cell-based
[5] = system: Cancer cell lines; assay: Percentage of content in MCF-7 human breast cancer cell nuclei was reported; type: functional, cell-based
[6] = system: Cancer cell lines; assay: Percentage of content in MDA-MB 231 human breast cancer cell nuclei was reported; type: functional, cell-based
[7] = system: Nucleic Acid; assay: DNA-binding efficacy; type: nucleic-acid assay
[8] = system: Cancer cell lines; assay: Content in MCF-7 human breast cancer cell nuclei was reported; type: functional, cell-based
[9] = system: Glutathione reductase (Homo sapiens); assay: Percentage influence on cellular glutathione reductase activity
[10] = Homo sapiens, Cancer cell lines

Row | Compound | IC50 ([1]; Homo sapiens, MCF7) [µM] | IC50 [2, 10] [µM] | IC50 ([1]; mcf7) [µM] | IC50 ([2]; cancer cell lines) [µM] | other results
1 | N[C@@H](Cc1ccc(N(CCCl)CCCl)cc1)C(=O)O | 5.7 | 3.9 |  |  | 
2 | O=c1[nH]cc(F)c(=O)[nH]1 [FLUOROURACIL] | 4.8 | 9.6 |  |  | 
3 | CISPLATIN |  |  | 2 | 4 | 
4 | Co-ASS [listing 1 of 2 here] |  |  | 1.4 | 1.9 | Log Kw [3]: 4.91
5 | Co-ASS [listing 2 of 2 here] |  |  |  |  | Activity [4]: 0.22 pmol/µg; Activity [5]: 0.8%; Activity [6]: 5%; Activity [7]: 9.82 pmol/µg; Activity [8]: 0.12 pmol/µg; Activity [9]: 93%
